In general, IC50 refers to the midpoint of a concentration-inhibition curve. By EC50 is commonly meant the concentration giving half of the maximal effect.

The results in this text go back to paper PMC6886872, “Discovery of a small molecule inhibitor targeting dengue virus NS5 RNA-dependent RNA polymerase” (PLoS Neglected Tropical Diseases, 2019).

In one series the target is T1, full-length DENV3 NS5 (Dengue virus type 3, UniProt P27915).
T1 construct: full-length NS5 proteins, comprising the N-terminal MTase and the C-terminal RdRp; His-tag (N, cleaved yes); SUMO (N, cleaved yes); made in house; host or cells: E. coli KRX
Nature of the series: biochemical.

A further series concerns DENV4 (H241 strain). Nature of the series: Cell-based antiviral assay, viral RNA in supernatant of infected Vero cells (RT-qPCR). To be noted: 72 h, viral RNA 3 days after infection. Here is the method:
(§1) The experiments were performed in triplicate.
On the technique in general: In qPCR the cycle at which signal appears reflects the starting amount.

Another series has as its system DENV2 16681 strain. Described as above. The following applies: Dengue virus, 72 h; DENV2 16681, Vero cells, viral RNA 3 days after infection. Here is the method: as §1
The subject of a further series is DENV3 (H87 strain). The series is described as above. To be noted: 72 h, viral RNA 3 days after infection. The protocol: as §1
A further series has as its system Vero cells. Nature of the series: Cytotoxicity, WST-1 assay. The series is classed as cell-based. To be noted: two days culture. Here is the method: The cytotoxic activities of the compounds were tested using a WST-1 assay (Roche Diagnostics), according to the manufacturer’s instructions. […] Ten μL of WST-1 solution was added to each well, and the cells were further incubated for 30 min. The absorbance was measured at 450 nm, with subtraction of the nonspecific background at 650 nm.
For orientation: Tetrazolium dyes change colour on reduction, which living cells bring about.

For a further series, the target named is T2, full-length DENV4 NS5 (Dengue virus type 4, UniProt P09866).
T2 construct: full-length NS5 proteins, comprising the N-terminal MTase and the C-terminal RdRp; His-tag (N, cleaved yes); SUMO (N, cleaved yes); made in house; host or cells: E. coli KRX
Nature of the series: biochemical. To be noted: read-out: IC50 Polymerase assay.

The next series relates to DENV1–4 infections. Nature of the series: Cell-based antiviral assay, summary over serotypes. To be noted: range over DENV1–4; read-out: EC50 values, antiviral activities. Here is the method:
as §1

Another series relates to DENV2 P04/08 strain. The series can be described thus: Cell-based antiviral assay, viral RNA in supernatant of infected Vero cells (RT-qPCR). To be noted: 72 hours after infection.
The test system of series [1] is recombinant DENV2 (WT, C780A, C780Q NS5). The series is classed as cell-based.
Series [2] has as its system NS5 proteins from DENV1–4. The series is classed as biochemical. The following applies: range over NS5 proteins from DENV1–4; read-out: IC50 values, RdRp activities.
The subject of a further series is DENV1 (Mochizuki strain). The series can be described thus: Cell-based antiviral assay, viral RNA in supernatant of infected Vero cells (RT-qPCR). Set-up: species or system Dengue virus serotype 1 (DENV1). The following applies: Dengue virus, 72 h, viral RNA 3 days after infection. The protocol: as §1

The structures appear in SMILES notation. Like-named read-outs stand apart in the source and are kept apart here.

Regarding `CC(=O)Oc1ccc2oc(=O)sc2c1` [RK-0404678, (2-Oxo-1,3-benzoxathiol-5-yl) acetate], the IC50 on full-length DENV3 NS5 was 287 ± 11 µM; on full-length DENV4 NS5, 445 ± 23 µM; in [2] it was 46.2 to 445 µM. Further, the EC50 in the series on DENV4 (H241 strain) was 31.9 ± 2.8 µM; in the series with DENV2 16681 strain it was 6 ± 0.3 µM; in the series on DENV3 (H87 strain) it was 29.4 ± 1.8 µM; in the series with DENV1–4 infections it was 6 to 31.9 µM; in [1] (DENV2 NS5 C780A mutant virus (Site 1)) it was 3.3 ± 1.1 µM; in series [1] (DENV2 NS5 C780Q mutant virus (Site 1)) it was 12.8 ± 2.2 µM. In addition, the figures for the concentration giving a half-maximal response (EC50) (in [1] (WT (recombinant) DENV2 virus); in the series with DENV1 (Mochizuki strain)) were 7.1 ± 0.67 µM and 29.5 ± 4.2 µM, respectively. Moreover, the “cytotoxicity in Vero cells” value with Vero cells is “marginal cytotoxicity even at the highest concentration (50 μM)”. Moreover, the “antiviral effect on DENV2 P04/08 strain compared with 16681 strain” value with DENV2 P04/08 strain is given as “comparable effect”.
